From publication PMC3227451, “Structure-based development of novel sirtuin inhibitors” (Aging (Albany NY), 2011) come the findings set out here.

Where two headings read alike, the source gives them in different places.

Assay type in all cases: biochemical
In one assay the target is T1, Sirt5 (Homo sapiens, UniProt Q9NXA8).
T1 construct: Sirt5 residues 34-302; His-tag with linker comprising a TEV protease cleavage site (N); made in house
T1 sequence (Q9NXA8 34-302): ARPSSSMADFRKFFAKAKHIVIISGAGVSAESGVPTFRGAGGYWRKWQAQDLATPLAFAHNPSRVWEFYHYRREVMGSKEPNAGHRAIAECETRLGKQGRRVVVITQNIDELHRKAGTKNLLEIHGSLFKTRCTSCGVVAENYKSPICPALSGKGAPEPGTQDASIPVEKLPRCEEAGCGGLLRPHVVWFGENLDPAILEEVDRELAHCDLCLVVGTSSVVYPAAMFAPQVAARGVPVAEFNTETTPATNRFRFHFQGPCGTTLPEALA
Briefly: Fluor-de-Lys peptide deacetylation assay, Sirt5. The protocol: (§1) Sirt3 was expressed in E. coli and purified via Ni-NTA and size exclusion chromatography as described elsewhere, and Sirt5 according to the protocol of Schuetz et al.. […] The protein was bound to the HiTrapQ column in buffer A and eluted in a gradient to buffer A supplemented with 400 mM KCl. Fractions were analyzed by SDS-PAGE, and the Sirt1 fractions were pooled and transferred into buffer A using a NAP column (GE Healthcare).
(§2) The commercial Fluor-de-Lys (FdL) assay kits 1 and 2 (Biomol, Plymouth Meeting, USA) were used to test the deacetylase activity of the four Sirtuins. In both kits the substrate derived from p53 is composed of three amino acids, the acetyl lysine and a C-terminally attached fluorophor. For Sirt2 and 3, FdL-2 peptide (QPK(acetyl-K)) was used, and FdL-1 peptide (RHK(acetyl-K)) for Sirt5 and Sirt6. All tests were done with 0.1 mM of the respective FdL peptide and 0.5 mM NAD^+ as substrates.
(§3) NCI compound stocks were prepared by dissolving them in DMSO at a concentration of 5 mM. The initial screens with all 40 compounds contained 5 μl Sirtuin solution (Sirt2/3 0.1 mg/ml stock concentration; Sirt5/6 1 mg/ml), 1 μl of compound stock (resulting in a 100 μM end concentration), 15 μl FdL substrate, and assay buffer (supplied in the assay kit) to a total volume of 50 μl. As control reactions, peptide with either the compound (without Sirtuin) or with Sirtuin and DMSO instead of compound were measured. After starting the reactions by adding the FdL substrate, assays were incubated for 30 min at 37 °C. Subsequently, 50 μl of a 10 mg/ml trypsin stock (“Developer solution”) were added and the reactions were incubated for 45 min at room temperature. Fluorescence values were measured in a fluorometric plate reader with excitation at 360 nm and read out at 485 nm. Values were then corrected with the control reaction (same compound, but without Sirtuin).
(§4) All measurements shown are averages of duplicates (screen) or triplicates (dose-response curves), and representatives of at least two independent replications. Error bars indicate standard deviations.

Another assay addresses T2, Sirt6 (Homo sapiens, UniProt Q8N6T7).
T2 construct: Sirt6 residues 13-308; His-tag with linker comprising a TEV protease cleavage site (N, cleaved yes); made in house; host or cells: E. coli Rosetta2
Briefly: Fluor-de-Lys peptide deacetylation assay, Sirt6. The protocol:
as §2, §3, §4

The target in the next assay is T3, Sirt3 (Homo sapiens, UniProt Q9NTG7).
T3 construct: Sirt3 residues 114-399; His-tag with linker comprising a TEV protease cleavage site (N); made in house; host or cells: E. coli
T3 sequence (Q9NTG7 114-399): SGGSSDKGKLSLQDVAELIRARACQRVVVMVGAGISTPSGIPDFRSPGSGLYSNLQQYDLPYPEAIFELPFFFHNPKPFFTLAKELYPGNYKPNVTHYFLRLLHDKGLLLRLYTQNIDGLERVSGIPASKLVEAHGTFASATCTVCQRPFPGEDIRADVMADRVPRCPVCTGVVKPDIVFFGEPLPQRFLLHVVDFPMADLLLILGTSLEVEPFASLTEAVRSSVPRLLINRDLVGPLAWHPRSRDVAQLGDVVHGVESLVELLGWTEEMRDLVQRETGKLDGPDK
Briefly: Fluor-de-Lys peptide deacetylation assay, Sirt3. How it is done:
as §1, §2, §3, §4

The next assay has as its target T4, Sirt2 (Homo sapiens, UniProt Q8IXJ6).
T4 sequence (Q8IXJ6 34-356): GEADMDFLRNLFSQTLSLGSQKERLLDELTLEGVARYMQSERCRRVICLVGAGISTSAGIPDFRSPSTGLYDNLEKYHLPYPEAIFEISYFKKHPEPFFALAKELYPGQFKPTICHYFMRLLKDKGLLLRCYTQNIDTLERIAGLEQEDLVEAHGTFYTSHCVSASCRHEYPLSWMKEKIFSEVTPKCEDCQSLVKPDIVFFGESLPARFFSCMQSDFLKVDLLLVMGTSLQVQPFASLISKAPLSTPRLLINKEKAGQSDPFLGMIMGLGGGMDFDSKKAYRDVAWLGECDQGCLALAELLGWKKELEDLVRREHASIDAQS
Briefly: Fluor-de-Lys peptide deacetylation assay, Sirt2. How it is done: The Sirt2 construct was expressed in E. coli Rosetta2 cells (Merck) in LB/Ampicillin/Chloramphenicol medium. Cells were grown at 37 °C, and expression induced at an OD600 of 0.6-0.8 for 4 h with 0.5 mM IPTG. Harvested cells were resuspended in buffer A (50 mM Tris/HCl pH 7.8, 200 mM NaCl, 2 mM DTT), disrupted with a Sonifier, and cell debris removed by 40 min centrifugation at 4 °C, 18000 rpm in a HFA22.50 rotor. The supernatant was supplemented with 10 mM imidazole and incubated with Ni-NTA resin for 1 h at 4 °C. […] The protein was concentrated in an amicon unit (Millipore, Billerica, USA) and digested over night at 4 °C with TEV-protease. The protease was removed from cleaved Sirt2 by incubation with Ni-NTA resin for 1 h at 4 °C. The protein was concentrated, 1:5 diluted with 50 mM Tris/HCl, pH 7.8, and applied to a HiTrap Q anion exchange column (GE Healthcare) equilibrated with 50 mM Tris/HCl, pH 7.8, 50 mM NaCl, 2 mM DTT and eluted with a gradient (20 column volumes) to 50 mM Tris/HCl, pH 7.8, 1 M NaCl, 2 mM DTT. Sirt2 was then applied to a Superdex200 gel filtration column (GE Healthcare) equilibrated in 20 mM Tris/HCl, pH 7.8, 150 mM NaCl, 2 mM DTT. The eluted protein was analyzed by SDS-PAGE, re-concentrated, and shock-frozen in liquid nitrogen for storage at -80 °C.
as §2, §3, §4

Setting [1] is: 100 μM compound, 0.1 mM FdL-1 peptide, 0.5 mM NAD+.
[2] abbreviates: 100 μM compound, 0.1 mM FdL-2 peptide, 0.5 mM NAD+.

T2 sequence (Q8N6T7 13-308): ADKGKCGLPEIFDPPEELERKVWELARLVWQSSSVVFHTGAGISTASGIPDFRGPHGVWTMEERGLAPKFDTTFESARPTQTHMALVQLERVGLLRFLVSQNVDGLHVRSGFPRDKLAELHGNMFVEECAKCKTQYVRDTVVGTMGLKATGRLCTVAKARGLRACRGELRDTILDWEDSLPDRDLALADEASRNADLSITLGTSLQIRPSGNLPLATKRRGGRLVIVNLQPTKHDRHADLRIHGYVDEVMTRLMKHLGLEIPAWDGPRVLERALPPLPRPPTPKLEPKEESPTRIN

For `Cc1cc(C)cc(C(=N)c2ccccc2Cc2cccc3ccccc23)c1` [CSC23, (3,5-dimethylphenyl)(2-(1-naphthylmethyl)phenyl)methanimine], the “Effect on the activity of Sirt5” value at Sirt5 (setting [1]) is “--- (no such effect)”. In addition, the “Effect on the activity of Sirt6” value at Sirt6 (setting [1]) is reported as “--- (no such effect)”. For the same compound, the “Effect on the activity of Sirt3” value at Sirt3 (setting [2]) is recorded as “--- (no such effect)”. Moreover, the “Effect on the activity of Sirt2” value at Sirt2 (setting [2]) is “inhibition (significant inhibitory effects (>25% loss of activity))”.
As for `CN1C[C@H](C(=O)N[C@]2(C)O[C@@]3(O)[C@@H]4CCCN4C(=O)[C@H](Cc4ccccc4)N3C2=O)C=C2c3cccc4[nH]cc(c34)C[C@H]21` [CSC21, 5'-benzyl-12'-hydroxy-2'-methyl-3',6',18-trioxoergotaman, (Ergotamine), reference compound], at Sirt5, the “Effect on the activity of Sirt5” value is “inhibition (key: inhibition: significant inhibitory effects (>25% loss of activity); ---: no such effect)”. Moreover, the “Effect on the activity of Sirt6” value at Sirt6 is reported as “inhibition (key: inhibition: significant inhibitory effects (>25% loss of activity); ---: no such effect)”. Besides, the “Effect on the activity of Sirt3” value on Sirt3 is reported as “--- (key: inhibition: significant inhibitory effects (>25% loss of activity); ---: no such effect)”. At Sirt2, the “Effect on the activity of Sirt2” value is listed as “inhibition (key: inhibition: significant inhibitory effects (>25% loss of activity); ---: no such effect)”.
Turning to `CC(C)c1ccc(C=C2C=C(c3ccc4ccccc4c3)OC2=O)cc1` [CSC9, 3-(4-isopropylbenzylidene)-5-(2-naphthyl)-2(3H)-furanone], the “Effect on the activity of Sirt5” value on Sirt5 (setting [1]) is “activation^c”. In addition, on Sirt6 (setting [1]), the “Effect on the activity of Sirt6” value is on record as “--- (no such effect)”. Besides, at Sirt3 (setting [2]), the “Effect on the activity of Sirt3” value was “--- (no such effect)”. For the same compound, the “Effect on the activity of Sirt2” value on Sirt2 (setting [2]) is “inhibition (significant inhibitory effects (>25% loss of activity))”.
Regarding `Clc1ccc(-c2noc(CN3CCCCC3)n2)cc1` [CSC37, 1-((3-(4-chlorophenyl)-1,2,4-oxadiazol-5-yl)methyl)piperidine], at Sirt5 (setting [1]), the “Effect on the activity of Sirt5” value was “--- (no such effect)”. The “Effect on the activity of Sirt6” value at Sirt6 (setting [1]) is listed as “--- (no such effect)”. Further, the “Effect on the activity of Sirt3” value on Sirt3 (setting [2]) was “--- (no such effect)”. Moreover, the “Effect on the activity of Sirt2” value on Sirt2 (setting [2]) was “inhibition (significant inhibitory effects (>25% loss of activity))”.
For “7-(1-naphthyl)-7^5-dibenzo[a,j]phenazin-5-amine compound with 7-(1-naphthyl)-7^5-dibenzo[a,j]phenazine-5,9-diamine (1:1), (Sudan Red) [CSC1]”, at Sirt5 (setting [1]), the “Effect on the activity of Sirt5” value is on record as “inhibition (significant inhibitory effects (>25% loss of activity))”. Besides, the “Effect on the activity of Sirt6” value at Sirt6 (setting [1]) is recorded as “inhibition (significant inhibitory effects (>25% loss of activity))”. For the same compound, at Sirt3 (setting [2]), the “Effect on the activity of Sirt3” value is listed as “inhibition (significant inhibitory effects (>25% loss of activity))”. On Sirt2 (setting [2]), the “Effect on the activity of Sirt2” value was “inhibition^a (significant inhibitory effects (>25% loss of activity))”.
With `O=C1c2ccccc2C(=O)c2c(Nc3cc4c5c(ccc6c7ccc8c9c(cc(Nc%10cccc%11c%10C(=O)c%10ccccc%10C%11=O)c(c3c56)c97)-c3ccccc3C8=O)C(=O)c3ccccc3-4)cccc21` [CSC6, 16,17-bis((9,10-dioxo-9,10-dihydro-1-anthracenyl)amino)anthra[9,1,2-cde]benzo[rst]pentaphene-5,10-dione], the “Effect on the activity of Sirt5” value at Sirt5 (setting [1]) is “--- (no such effect)”. Further, the “Effect on the activity of Sirt6” value on Sirt6 (setting [1]) is on record as “inhibition (significant inhibitory effects (>25% loss of activity))”. The “Effect on the activity of Sirt3” value on Sirt3 (setting [2]) is given as “--- (no such effect)”. In addition, the “Effect on the activity of Sirt2” value on Sirt2 (setting [2]) is on record as “inhibition (significant inhibitory effects (>25% loss of activity))”.
